Earlier results as cited in patent US20250381182A1, “ALDH-2 INHIBITOR COMPOUNDS AND METHODS OF USE” (Amygdala Neurosciences, Inc., priority 2024, published 2025).

Conditions: O'Malley et al. 2021, Phase 2 study of ANS-6637; cited from earlier work

For O=C(NCc1ccc(-c2cc[nH]c(=O)c2)cc1)c1c(Cl)cccc1Cl [2,6-dichloro-N-[4-(2-oxo-1,2-dihydro-pyridin-4-yl)-benzyl]-benzamide], the hepatotoxicity in humans is given as “high levels of hepatotoxicity”.
